Values quoted from earlier work, collected in patent publication US11524044B2, “Strengthening and tumor eliminating traditional Chinese medicine composition, its preparation method and application” (The First Afiliated Hospital Of Guangzhou University Of …, priority 2020, dated 2022).

Columns and labels:
[1] = system: ADP induced platelet aggregation
[2] = system: human colon cancer, liver cancer, gastric cancer, lung cancer and breast cancer related cells

Row | Structure (SMILES) | inhibition of ADP induced platelet aggregation [1] | cytotoxicity [2]
1 | N#C[C@H](O[C@@H]1O[C@H](CO[C@@H]2O[C@H](CO)[C@@H](O)[C@H](O)[C@H]2O)[C@@H](O)[C@H](O)[C@H]1O)c1ccccc1 [amygdalin] | inhibit ADP induced platelet aggregation in varying degrees | 
2 | COc1cc(O)c(-c2c(O)cc(OC)c3c2ccc2cc(O)ccc23)c2c1-c1ccc(O)cc1CC2 [Cirrhopetalanthrin] |  | moderate cytotoxicity
